Measurements taken from US20210045385A1, “PYRIDAZINONE-SUBSTITUTED KETOXIMES AS HERBICIDES” (FMC Corporation, priority 2018, published 2021).

Tests used:
Format in all cases: in vivo
[1] = tested on: blackgrass (Alopecurus myosuroides); assay: Test A postemergence, visual plant response rating; conditions: for Blackgrass plant response rating (0 to 100 scale): 500 g ai/ha, postemergence, 0 is no effect, 100 is complete control; for Blackgrass plant response rating: Postemergence, 125 g ai/ha, 0 to 100 scale (0 no effect, 100 complete control)
Summary of the method: (§1)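 Ratings use a 0–100 visual scale (100 = complete control) against untreated controls, scored about 10 days after greenhouse treatment. Test chemicals were formulated in surfactant-containing non-phytotoxic solvent and applied either as soil spray after planting (preemergence) or onto one- to two-leaf, 2–10 cm plants (postemergence).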

[2] = tested on: foxtail, giant (giant foxtail, Setaria faberii); assay: Test A postemergence, visual plant response rating; conditions: for Foxtail, Giant plant response rating (0 to 100 scale): 500 g ai/ha, postemergence, 0 is no effect, 100 is complete control; for Foxtail, Giant plant response rating: Postemergence, 125 g ai/ha, 0 to 100 scale (0 no effect, 100 complete control)
Summary of the method: as §1

[3] = tested on: galium (catchweed bedstraw, Galium aparine); assay: Test A postemergence, visual plant response rating; conditions: for Galium plant response rating (0 to 100 scale): 500 g ai/ha, postemergence, 0 is no effect, 100 is complete control; for Galium plant response rating: Postemergence, 125 g ai/ha, 0 to 100 scale (0 no effect, 100 complete control)
Summary of the method: as §1

[4] = tested on: wheat (Triticum aestivum); assay: Test A postemergence, visual plant response rating; conditions: for Wheat plant response rating (0 to 100 scale): 500 g ai/ha, postemergence, 0 is no effect, 100 is complete control; for Wheat plant response rating: Postemergence, 125 g ai/ha, 0 to 100 scale (0 no effect, 100 complete control)
Summary of the method: as §1

[5] = tested on: ragweed (common ragweed, Ambrosia elatior); assay: Test A postemergence, visual plant response rating; conditions: for Ragweed plant response rating (0 to 100 scale): 500 g ai/ha, postemergence, 0 is no effect, 100 is complete control; for Ragweed plant response rating: Postemergence, 125 g ai/ha, 0 to 100 scale (0 no effect, 100 complete control)
Summary of the method: as §1

[6] = tested on: Italian ryegrass (Lolium multiflorum); assay: Test A postemergence, visual plant response rating; conditions: for Ryegrass, Italian plant response rating (0 to 100 scale): 500 g ai/ha, postemergence, 0 is no effect, 100 is complete control; for Ryegrass, Italian plant response rating: Postemergence, 125 g ai/ha, 0 to 100 scale (0 no effect, 100 complete control)
Summary of the method: as §1

kochia (Kochia scoparia) [7] = assay: Test A postemergence, visual plant response rating; conditions: for Kochia plant response rating (0 to 100 scale): 500 g ai/ha, postemergence, 0 is no effect, 100 is complete control; for Kochia plant response rating: Postemergence, 125 g ai/ha, 0 to 100 scale (0 no effect, 100 complete control)
Summary of the method: as §1

[8] = tested on: pigweed (Amaranthus retroflexus); assay: Test A postemergence, visual plant response rating; conditions: for Pigweed plant response rating (0 to 100 scale): 500 g ai/ha, postemergence, 0 is no effect, 100 is complete control; for Pigweed plant response rating: Postemergence, 125 g ai/ha, 0 to 100 scale (0 no effect, 100 complete control)
Summary of the method: as §1

[9] = tested on: barnyardgrass (Echinochloa crus-galli); assay: Test A postemergence, visual plant response rating; conditions: for Barnyardgrass plant response rating (0 to 100 scale): 500 g ai/ha, postemergence, 0 is no effect, 100 is complete control; for Barnyardgrass plant response rating: Postemergence, 125 g ai/ha, 0 to 100 scale (0 no effect, 100 complete control)
Summary of the method: as §1

corn (Zea mays) = assay: Test A postemergence, visual plant response rating; conditions: for Corn plant response rating (0 to 100 scale): 500 g ai/ha, postemergence, 0 is no effect, 100 is complete control; for Corn plant response rating: Postemergence, 125 g ai/ha, 0 to 100 scale (0 no effect, 100 complete control)
Summary of the method: as §1

[10] = tested on: foxtail, giant (giant foxtail, Setaria faberii); assay: Test A preemergence, visual plant response rating; conditions: for Foxtail, Giant plant response rating: 125 g ai/ha, preemergence, 0 to 100 scale, 0 no effect, 100 complete control; for Foxtail, Giant plant response rating (0 to 100 scale): 500 g ai/ha Preemergence, approx. 10 days
Summary of the method: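 Compared with untreated controls, treated plants received a visual injury score on a 0–100 scale around 10 days after application. The compound, in a non-phytotoxic solvent with surfactant, was given as a preemergence soil spray or postemergence at the one- to two-leaf stage.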

[11] = tested on: ragweed (common ragweed, Ambrosia elatior); assay: Test A preemergence, visual plant response rating; conditions: for Ragweed plant response rating: 125 g ai/ha, preemergence, 0 to 100 scale, 0 no effect, 100 complete control; for Ragweed plant response rating (0 to 100 scale): 500 g ai/ha Preemergence, approx. 10 days
Summary of the method: as §1

[12] = tested on: Italian ryegrass (Lolium multiflorum); assay: Test A preemergence, visual plant response rating; conditions: for Ryegrass, Italian plant response rating: 125 g ai/ha, preemergence, 0 to 100 scale, 0 no effect, 100 complete control; for Ryegrass, Italian plant response rating (0 to 100 scale): 500 g ai/ha Preemergence, approx. 10 days
Summary of the method: as §1

kochia (Kochia scoparia) [13] = assay: Test A preemergence, visual plant response rating; conditions: for Kochia plant response rating: 125 g ai/ha, preemergence, 0 to 100 scale, 0 no effect, 100 complete control; for Kochia plant response rating (0 to 100 scale): 500 g ai/ha Preemergence, approx. 10 days
Summary of the method: as §1

[14] = tested on: pigweed (Amaranthus retroflexus); assay: Test A preemergence, visual plant response rating; conditions: for Pigweed plant response rating: 125 g ai/ha, preemergence, 0 to 100 scale, 0 no effect, 100 complete control; for Pigweed plant response rating (0 to 100 scale): 500 g ai/ha Preemergence, approx. 10 days
Summary of the method: as §1

[15] = tested on: barnyardgrass (Echinochloa crus-galli); assay: Test A preemergence, visual plant response rating; conditions: for Barnyardgrass plant response rating: 125 g ai/ha, preemergence, 0 to 100 scale, 0 no effect, 100 complete control; for Barnyardgrass plant response rating (0 to 100 scale): 500 g ai/ha Preemergence, approx. 10 days
Summary of the method: as §1

[16] = tested on: sedge, umbrella (small-flower umbrella sedge, Cyperus difformis); assay: Test B flooded paddy test, visual plant response rating; conditions: 250 g ai/ha, Flood, applied to paddy water, 2-leaf stage, evaluated after 13 to 15 days
Summary of the method: (§2)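 2-leaf plants; pots flooded 3 cm over soil surface; compound dosed straight into the floodwater; depth kept constant; greenhouse 13–15 d; visual rating vs. untreated controls.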

[17] = tested on: ducksalad (Heteranhera limosa); assay: as above; conditions: 250 g ai/ha, Flood, applied to paddy water, 2-leaf stage, evaluated after 13 to 15 days
Summary of the method: as §2

rice (Oryza sativa) = assay: as above; conditions: 250 g ai/ha, Flood, applied to paddy water, 2-leaf stage, evaluated after 13 to 15 days
Summary of the method: as §2

[18] = tested on: barnyardgrass (Echinochloa crus-galli); assay: as above; conditions: 250 g ai/ha, Flood, applied to paddy water, 2-leaf stage, evaluated after 13 to 15 days
Summary of the method: as §2

SMILES: CON=C(c1cc(Cl)ccc1C(F)(F)F)c1c(O)c(C)nn(C)c1=O [Compound 97]
- Blackgrass plant response rating (0 to 100 scale) [1]: 90
- Blackgrass plant response rating [1]: 70
- Foxtail, Giant plant response rating (0 to 100 scale) [2]: 80
- Foxtail, Giant plant response rating [2]: 70
- Galium plant response rating (0 to 100 scale) [3]: 90
- Galium plant response rating [3]: 70
- Wheat plant response rating (0 to 100 scale) [4]: 50
- Wheat plant response rating [4]: 30
- Ragweed plant response rating (0 to 100 scale) [5]: 80
- Ragweed plant response rating [5]: 70
- Ryegrass, Italian plant response rating (0 to 100 scale) [6]: 100
- Ryegrass, Italian plant response rating [6]: 90
- Kochia plant response rating (0 to 100 scale) (kochia (Kochia scoparia) [7]): 70
- Kochia plant response rating (kochia (Kochia scoparia) [7]): 60
- Pigweed plant response rating (0 to 100 scale) [8]: 80
- Pigweed plant response rating [8]: 80
- Barnyardgrass plant response rating (0 to 100 scale) [9]: 60
- Barnyardgrass plant response rating [9]: 40
- Corn plant response rating (0 to 100 scale) (corn (Zea mays)): 40
- Corn plant response rating (corn (Zea mays)): 0
- Foxtail, Giant plant response rating [10]: 80
- Foxtail, Giant plant response rating (0 to 100 scale) [10]: 90
- Ragweed plant response rating [11]: 60
- Ragweed plant response rating (0 to 100 scale) [11]: 100
- Ryegrass, Italian plant response rating [12]: 80
- Ryegrass, Italian plant response rating (0 to 100 scale) [12]: 100
- Kochia plant response rating (kochia (Kochia scoparia) [13]): 20
- Kochia plant response rating (0 to 100 scale) (kochia (Kochia scoparia) [13]): 50
- Pigweed plant response rating [14]: 40
- Pigweed plant response rating (0 to 100 scale) [14]: 90
- Barnyardgrass plant response rating [15]: 70
- Barnyardgrass plant response rating (0 to 100 scale) [15]: 90
- Plant response rating, Sedge, Umbrella (0 to 100 scale, 0 is no effect, 100 is complete control) [16]: 0
- Plant response rating, Ducksalad (0 to 100 scale, 0 is no effect, 100 is complete control) [17]: 0
- Plant response rating, Rice (0 to 100 scale, 0 is no effect, 100 is complete control) (rice (Oryza sativa)): 0
- Plant response rating, Barnyardgrass (0 to 100 scale, 0 is no effect, 100 is complete control) [18]: 0

SMILES: C#CCON=C(c1c(O)c(C)nn(C)c1=O)c1cccc2ccccc12 (mixture of isomers) [Compound 118]
- Blackgrass plant response rating (0 to 100 scale) [1]: 100
- Blackgrass plant response rating [1]: 90
- Foxtail, Giant plant response rating (0 to 100 scale) [2]: 90
- Foxtail, Giant plant response rating [2]: 80
- Galium plant response rating (0 to 100 scale) [3]: 100
- Galium plant response rating [3]: 90
- Wheat plant response rating (0 to 100 scale) [4]: 90
- Wheat plant response rating [4]: 40
- Ragweed plant response rating (0 to 100 scale) [5]: 90
- Ragweed plant response rating [5]: 90
- Ryegrass, Italian plant response rating (0 to 100 scale) [6]: 100
- Ryegrass, Italian plant response rating [6]: 90
- Kochia plant response rating (0 to 100 scale) (kochia (Kochia scoparia) [7]): 100
- Kochia plant response rating (kochia (Kochia scoparia) [7]): 70
- Pigweed plant response rating (0 to 100 scale) [8]: 100
- Pigweed plant response rating [8]: 100
- Barnyardgrass plant response rating (0 to 100 scale) [9]: 90
- Barnyardgrass plant response rating [9]: 90
- Corn plant response rating (0 to 100 scale) (corn (Zea mays)): 70
- Corn plant response rating (corn (Zea mays)): 30
- Foxtail, Giant plant response rating [10]: 80
- Foxtail, Giant plant response rating (0 to 100 scale) [10]: 100
- Ragweed plant response rating [11]: 80
- Ragweed plant response rating (0 to 100 scale) [11]: 100
- Ryegrass, Italian plant response rating [12]: 100
- Ryegrass, Italian plant response rating (0 to 100 scale) [12]: 100
- Kochia plant response rating (kochia (Kochia scoparia) [13]): 40
- Kochia plant response rating (0 to 100 scale) (kochia (Kochia scoparia) [13]): 60
- Pigweed plant response rating [14]: 100
- Pigweed plant response rating (0 to 100 scale) [14]: 100
- Barnyardgrass plant response rating [15]: 60
- Barnyardgrass plant response rating (0 to 100 scale) [15]: 100
- Plant response rating, Sedge, Umbrella (0 to 100 scale, 0 is no effect, 100 is complete control) [16]: 35
- Plant response rating, Ducksalad (0 to 100 scale, 0 is no effect, 100 is complete control) [17]: 55
- Plant response rating, Rice (0 to 100 scale, 0 is no effect, 100 is complete control) (rice (Oryza sativa)): 0
- Plant response rating, Barnyardgrass (0 to 100 scale, 0 is no effect, 100 is complete control) [18]: 0

SMILES: C=CCO/N=C(\c1c(O)c(C)nn(C)c1=O)c1ccc(F)c2ccccc12 [Compound 86]
- Blackgrass plant response rating (0 to 100 scale) [1]: 90
- Blackgrass plant response rating [1]: 90
- Foxtail, Giant plant response rating (0 to 100 scale) [2]: 80
- Foxtail, Giant plant response rating [2]: 70
- Galium plant response rating (0 to 100 scale) [3]: 100
- Galium plant response rating [3]: 70
- Wheat plant response rating (0 to 100 scale) [4]: 80
- Wheat plant response rating [4]: 50
- Ragweed plant response rating (0 to 100 scale) [5]: 100
- Ragweed plant response rating [5]: 100
- Ryegrass, Italian plant response rating (0 to 100 scale) [6]: 100
- Ryegrass, Italian plant response rating [6]: 90
- Kochia plant response rating (0 to 100 scale) (kochia (Kochia scoparia) [7]): 50
- Kochia plant response rating (kochia (Kochia scoparia) [7]): 40
- Pigweed plant response rating (0 to 100 scale) [8]: 80
- Pigweed plant response rating [8]: 70
- Barnyardgrass plant response rating (0 to 100 scale) [9]: 80
- Barnyardgrass plant response rating [9]: 50
- Corn plant response rating (0 to 100 scale) (corn (Zea mays)): 20
- Corn plant response rating (corn (Zea mays)): 0
- Foxtail, Giant plant response rating [10]: 100
- Foxtail, Giant plant response rating (0 to 100 scale) [10]: 100
- Ragweed plant response rating [11]: 80
- Ragweed plant response rating (0 to 100 scale) [11]: 100
- Ryegrass, Italian plant response rating [12]: 100
- Ryegrass, Italian plant response rating (0 to 100 scale) [12]: 100
- Kochia plant response rating (kochia (Kochia scoparia) [13]): 20
- Kochia plant response rating (0 to 100 scale) (kochia (Kochia scoparia) [13]): 30
- Pigweed plant response rating [14]: 90
- Pigweed plant response rating (0 to 100 scale) [14]: 100
- Barnyardgrass plant response rating [15]: 90
- Barnyardgrass plant response rating (0 to 100 scale) [15]: 90
- Plant response rating, Sedge, Umbrella (0 to 100 scale, 0 is no effect, 100 is complete control) [16]: 0
- Plant response rating, Ducksalad (0 to 100 scale, 0 is no effect, 100 is complete control) [17]: 0
- Plant response rating, Rice (0 to 100 scale, 0 is no effect, 100 is complete control) (rice (Oryza sativa)): 0
- Plant response rating, Barnyardgrass (0 to 100 scale, 0 is no effect, 100 is complete control) [18]: 0
